Measured values from patent publication US5747511A, “Benzothiophene analogs as antiviral agents” (SRI International, priority 1995, dated 1998).

Experiments:
MRC-5 cells = experiment: evidence of cytotoxicity by microscopy after 72 hours; assay type: cell-based; design: unit not given beside the values; settings: 37° C., microscopic cytotoxicity
Description: (§1) Continuous passaged MRC-5 cells obtained from the American Type Culture Collection (Bethesda, Md.) were used for testing of herpes-type virus, with growth medium consisting of Minimum Essential Medium (MEM) supplemented with 0.1% NaHCO3 and […] gentamicin.
(§2) To a 96 well microtiter plate containing an established 24 hour monolayer of cells from which the medium has been decanted was added 0.1 mL of varying (one-half log10) concentrations of test compound, which incubated on the cell 15 minutes, after which 0.1 mL of virus in a concentration of 320 cell culture 50% infectious doses (CCID50)/0.1 mL was added. The plate was covered with plastic wrap and incubated at 37° C. The cells were examined microscopically after 72 hours for evidence of cytotoxicity and for viral cytopathic effect (CPE).

cytomegalovirus = experiment: in vitro antiviral evaluation, viral cytopathic effect (CPE) by microscopy after 72 hours; assay type: cell-based; settings: TI column of Table 1 (equals CD50/ED50); 4320 min
Description: The compounds prepared in the previous Examples were evaluated in vitro as antiviral agents against cytomegalovirus, as follows.
The herpes virus strain employed was Strain McCrae of type 1 herpes (thymidine kinase positive virus) (HSV-1TK^+). This strain was prepared and titered in MA-104 cells and frozen at -90° C. until use. Also used were strain HF (HSV-1TK^-), strain E194 (HSV-2), NJB strain (MCMV), and strain AD169 (HCMV).
as §1, §2

## Nc1cc2ccncc2c2sc3ccccc3c12 [Compound 1]
MRC-5 cells
  CD50: > 10
cytomegalovirus
  TI: > 100
